The source of these data is publication PMC11739978, “Next-Generation Carbazole-Linked 1,2,4-Triazole-Thione Derivatives: Strategic Design, Synthesis, Molecular Docking, and Evaluation of Antidiabetic Potential” (ACS Omega, 2024).

Data set [1] is described as follows: MTS cytotoxicity assay on LX-2 normal hepatic cells. To be noted: human, LX-2 hepatic stellate cells. For orientation: Tetrazolium dyes change colour on reduction, which living cells bring about.
Data set [2] deals with STZ-induced diabetic mice. The data set can be described thus: In vivo hypoglycemic effect in mice with STZ-induced diabetes. To be noted: group III STZ-diabetic mice, fasting. The protocol: The Carbazole-triazole derivatives were tested in a laboratory setting to determine their ability to inhibit the enzyme α-amylase and α-glucosidase. […] Therefore, C5f was selected for further investigation of its ability to lower blood sugar levels in an in vivo study. This investigation sought to reveal the effect of C5f on blood glucose levels in mice with diabetes caused by Streptozotocin (STZ). This compound has a significant hypoglycemic effect in STZ-diabetic mice, similar to the effect reported in the control group (mice that were not treated), as shown in Figure 3. The mice were divided into three groups: group I: negative control mice without any treatment; Group II: positive control mice with STZ treatment only; and Group III: mice treated with STZ and then with our compound C5f.
The investigations conducted on mice adhered strictly to the protocols established by the Association for Assessment and Accreditation of Laboratory Animal Care International. The Institutional Review Board of the Animal House and Use Committee at An-Najah National University granted full ethical approval for the study (approval number: Med. September. 2022/2A). […]
The experiment entailed inducing diabetes intraperitoneally by administering streptozotocin (STZ) (i.p.). […] To determine the development of diabetes, the mice’s fasting blood glucose levels were evaluated 4 days following the injection of STZ. […]

The subject of another data set is LX-2 cells. The data set can be described thus: MTS cytotoxicity assay on LX-2 normal hepatic cells. To be noted: LX-2, 100 μM.

SMILES strings stand for the structures. Where “and” joins values, the source holds several entries; their conditions need not be identical. Equal values may be shown once.

Take `O=c1[nH]cc(F)c(=O)[nH]1` [5-Fu, 5-Fluorouracil, reference compound]: in data set [1], the viability – broadly, the share of living cells, or the viability signal relative to a control – at 24 h, 100 µM came out at 13.4%.

In data set [1], `COc1ccc(-n2c(Cn3c4ccccc4c4ccccc43)n[nH]c2=S)cc1` [C5f, 5-((9H-Carbazol-9-yl)methyl)-4-(4-methoxyphenyl)-2,4-dihydro-3H-1,2,4-triazole-3-thione] returned a viability at 24 h, 100 µM of 63.6%. In addition, in data set [2] (10 mg/kg i.p. daily for 5 days, 10 mg/kg), the “blood glucose level after five doses of C5f” value is 216.15 mg/dL and 216.15 ± 3.45 mg/dL. Further, in data set [2] (baseline after STZ induction), the “blood glucose level before C5f treatment” value is 290.54 mg/dL and 290.54 ± 2.15 mg/dL.

`S=c1[nH]nc(Cn2c3ccccc3c3ccccc32)n1-c1ccc(Br)cc1` [C5g, 5-((9H-Carbazol-9-yl)methyl)-4-(4-bromophenyl)-2,4-dihydro-3H-1,2,4-triazole-3-thione] returned a viability at 24 h, 100 µM in data set [1] of 65.3 to 85.3%.

In the case of `S=c1[nH]nc(Cn2c3ccccc3c3ccccc32)n1-c1ccc(Cl)cc1` [C5h, 5-((9H-Carbazol-9-yl)methyl)-4-(4-chlorophenyl)-2,4-dihydro-3H-1,2,4-triazole-3-thione], the viability at 24 h, 100 µM in data set [1] was 65.3 to 85.3%.

On to `S=c1[nH]nc(Cn2c3ccccc3c3ccccc32)n1C1CCCCC1` [C5m, 5-((9H-Carbazol-9-yl)methyl)-4-cyclohexyl-2,4-dihydro-3H-1,2,4-triazole-3-thione], for which the viability at 24 h, 100 µM in data set [1] fell in the range of 65.3 to 85.3%.

Turning to `O=C(c1ccccc1)n1c(Cn2c3ccccc3c3ccccc32)n[nH]c1=S` [C5o, (3-((9H-Carbazol-9-yl)methyl)-5-thioxo-1,5-dihydro-4H-1,2,4-triazol-4-yl)(phenyl)methanone], the viability at 24 h, 100 µM in data set [1] came out at 36.5%. Also, the “lower cytotoxic activity compared to the positive control 5-FU” value with LX-2 cells is listed as 3 fold.

Take `S=c1[nH]nc(Cn2c3ccccc3c3ccccc32)n1C1CC2CCC1C2` (stereo not drawn) [C5r, 5-((9H-Carbazol-9-yl)methyl)-4-(bicyclo[2.2.1]heptan-2-yl)-2,4-dihydro-3H-1,2,4-triazole-3-thione]: in data set [1], the viability at 24 h, 100 µM was found to be 64.5%.

In turn, `S=c1[nH]nc(Cn2c3ccccc3c3ccccc32)n1CCc1ccccc1` [C5s, 5-((9H-Carbazol-9-yl)methyl)-4-phenethyl-2,4-dihydro-3H-1,2,4-triazole-3-thione] displayed a viability at 24 h, 100 µM in data set [1] of 37.8%. In the data set on LX-2 cells, the “lower cytotoxic activity compared to the positive control 5-FU” value is recorded as 3 fold.
